The text below walks through data of patent publication US11161854B2, “Indazolyl-spiro[2.2]pentane-carbonitrile derivatives as LRRK2 inhibitors, pharmaceutical compositions, and uses thereof” (Merck Sharp & Dohme Corp., priority 2017, dated 2021).

For orientation: IC50 means the concentration at which inhibition is half-maximal. A low value points to higher potency.

In the assay the target is GST-tagged truncated human mutant G2019S LRRK2 (Homo sapiens (Human), UniProt Q5S007, G2019S). Kind of assay: LRRK2 G2019S Km ATP LanthaScreen Assay. Particulars: 134 μM ATP (Km ATP); fluorescein-labeled LRRKtide substrate; mean IC50 values. The class given is biochemical. How it is done: The IC50 values reported herein were measured as follows.
Chain of GST-tagged truncated human mutant G2019S LRRK2 (Q5S007 970-2527 G2019S): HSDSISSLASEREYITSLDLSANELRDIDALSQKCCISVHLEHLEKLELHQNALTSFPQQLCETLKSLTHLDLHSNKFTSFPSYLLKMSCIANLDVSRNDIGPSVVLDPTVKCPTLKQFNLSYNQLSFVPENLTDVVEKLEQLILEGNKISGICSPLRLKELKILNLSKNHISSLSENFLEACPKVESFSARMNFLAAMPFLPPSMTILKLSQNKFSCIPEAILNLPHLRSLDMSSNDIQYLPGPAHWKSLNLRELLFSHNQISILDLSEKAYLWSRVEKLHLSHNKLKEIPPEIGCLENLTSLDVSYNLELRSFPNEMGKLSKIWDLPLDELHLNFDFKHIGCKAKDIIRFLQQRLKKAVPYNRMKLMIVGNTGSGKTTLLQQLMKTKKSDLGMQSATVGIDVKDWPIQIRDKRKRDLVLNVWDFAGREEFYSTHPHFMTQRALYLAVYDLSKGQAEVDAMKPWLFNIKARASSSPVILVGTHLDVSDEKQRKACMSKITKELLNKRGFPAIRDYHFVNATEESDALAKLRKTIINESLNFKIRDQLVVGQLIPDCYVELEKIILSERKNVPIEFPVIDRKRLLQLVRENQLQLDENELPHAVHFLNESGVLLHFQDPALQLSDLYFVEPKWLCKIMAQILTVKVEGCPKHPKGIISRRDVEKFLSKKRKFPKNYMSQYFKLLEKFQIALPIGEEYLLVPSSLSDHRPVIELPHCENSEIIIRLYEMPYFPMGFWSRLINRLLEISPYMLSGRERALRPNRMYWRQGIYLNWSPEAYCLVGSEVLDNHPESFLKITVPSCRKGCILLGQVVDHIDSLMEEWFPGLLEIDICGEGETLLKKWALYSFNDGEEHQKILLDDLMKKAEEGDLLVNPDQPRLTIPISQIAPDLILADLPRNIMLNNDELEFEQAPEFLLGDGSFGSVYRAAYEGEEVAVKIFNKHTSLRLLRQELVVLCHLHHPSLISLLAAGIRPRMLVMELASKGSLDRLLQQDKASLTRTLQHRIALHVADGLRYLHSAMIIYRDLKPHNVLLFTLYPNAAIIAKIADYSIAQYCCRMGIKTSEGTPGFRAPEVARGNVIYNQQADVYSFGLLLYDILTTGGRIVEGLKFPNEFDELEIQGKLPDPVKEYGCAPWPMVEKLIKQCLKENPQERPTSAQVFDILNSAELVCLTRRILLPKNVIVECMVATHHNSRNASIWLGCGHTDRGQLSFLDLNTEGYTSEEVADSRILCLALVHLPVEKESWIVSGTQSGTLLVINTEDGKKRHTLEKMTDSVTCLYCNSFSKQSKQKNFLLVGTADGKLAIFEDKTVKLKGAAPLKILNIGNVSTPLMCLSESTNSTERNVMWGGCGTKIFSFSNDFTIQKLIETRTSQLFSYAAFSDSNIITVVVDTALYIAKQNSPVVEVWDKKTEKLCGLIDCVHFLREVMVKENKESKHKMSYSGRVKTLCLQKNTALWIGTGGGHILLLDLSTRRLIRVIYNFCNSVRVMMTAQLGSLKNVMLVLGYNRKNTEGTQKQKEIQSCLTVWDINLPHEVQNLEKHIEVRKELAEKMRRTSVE
Biological Assay: LRRK2 Km ATP LanthaScreen™ Assay
The data presented for the Km ATP LanthaScreen™ Assay represents mean IC50 values based on several test results and may have reasonable deviations depending on the specific conditions and reagents used. Assays were performed in the presence of 134 μM ATP (Km ATP). Upon completion, the assay was stopped and phosphorylated substrate detected with a terbium (Tb)-labeled anti-pERM antibody (cat. no. PV4898). The compound dose response was prepared by diluting a 10 mM stock of compound to a maximum concentration of […] in 100% dimethylsulfoxide followed by custom fold serial dilution in dimethylsulfoxide nine times. Twenty nanoliters of each dilution was spotted via a Labcyte Echo onto a 384-well black-sided plate (Corning 3575) followed by 15 μl of a 1.25 nM enzyme solution in 1× assay buffer (50 mM Tris pH 8.5, 10 mM MgCl2, 0.01% Brij-35, 1 mM EGTA, 2 mM dithiothreitol, 0.05 mM sodium orthovanadate). Following a 15-minute incubation at room temperature, the kinase reaction was started with the addition of 5 μl of 400 nM fluorescein-labeled LRRKtide peptide substrate and 134 μM ATP solution in 1× assay buffer. The reaction was allowed to progress at ambient temperature for 90 minutes. The reaction was then stopped by the addition of 20 μl of TR-FRET Dilution Buffer (Life Technologies, Carlsbad, Calif.) containing 2 nM Tb-labeled anti-phospho LRRKtide antibody and 10 mM EDTA (Life Technologies, Carlsbad, Calif.). After an incubation of 1 hour at room temperature, the plate was read on an EnVision multimode plate reader (Perkin Elmer, Waltham, Mass.) with an excitation wavelength of 337 nm (Laser) and a reading emission at both 520 and 495 nm. […] Abase uses a 4 parameter (4P) logistic fit based on the Levenberg-Marquardt algorithm.
For the molecule `CC(C)(O)C12CC(C1)N(c1cc(-n3ncc4ccc(C5(C#N)CC56CC6)cc43)cnn1)C2` (single isomer, unassigned) [Example 10.3-2, (R or S)-1-(1-(6-(4-(2-hydroxypropan-2-yl)-2-azabicyclo[2.1.1]hexan-2-yl)pyridazin-4-yl)-1H-indazol-6-yl)spiro[2.2]pentane-1-carbonitrile], the IC50 was found to be 15.4 nM. The same measure for `CC(C)(O)[C@@H]1CCN(c2cc(-n3ncc4ccc(C5(C#N)CC56CC6)cc43)cnn2)C1` (single isomer, unassigned) [Example 10.4-1]: 18.7 nM; for `CC(C)(O)[C@@H]1CCN(c2cc(-n3ncc4ccc(C5(C#N)CC56CC6)cc43)cnn2)C1` (single isomer, unassigned) [Example 10.4-2]: 2.7 nM; for `Cc1nc(N2CC3(CN(CC(F)(F)F)C3)C2)cc(-n2ncc3cnc(C4(C#N)CC45CC5)cc32)n1` (single isomer, unassigned) [Example 12.1, (S or R)-1-(1-(2-methyl-6-(6-(2,2,2-trifluoroethyl)-2,6-diazaspiro[3.3]heptan-2-yl)pyrimidin-4-yl)-1H-pyrazolo[4,3-c]pyridin-6-yl)spiro[2.2]pentane-1-carbonitrile]: 2.1 nM. Regarding `N#C[C@@]1(c2ccc3cnn(-c4cc(N5CCOC(CO)C5)ncn4)c3c2)CC12CC2` (stereo in doubt) [Example 4.9-1, 1-(1-(6-(2-(hydroxymethyl)morpholino)pyrimidin-4-yl)-1H-indazol-6-yl)spiro[2.2]pentane-1-carbonitrile], half-maximal inhibition (IC50) was put at 0.6 nM. Turning to `CC(C)(O)[C@@H]1CCN(c2cc(-n3ncc4ccc([C@]5(C#N)CC56CC6)cc43)ncn2)C1` [Example 1.4-2, (S)-1-(1-(6-((R)-3-(2-hydroxypropan-2-yl)pyrrolidin-1-yl)pyrimidin-4-yl)-1H-indazol-6-yl)spiro[2.2]pentane-1-carbonitrile], the IC50 came out at 0.9 nM. The same measure for `N#CC1(c2ccc3cnn(-c4cc(N5CC6(CCOC6)C5)ncn4)c3c2)CC12CC2` (stereo not shown) [Example 1.5]: 0.9 nM. As for `CNc1nc(N2CC[C@@H](C(C)(C)O)C2)cc(-n2ncc3ccc(C4(C#N)CC45CC5)cc32)n1` (stereo partly drawn) [Example 2.6-1, 1-(1-(6-((R)-3-(2-hydroxypropan-2-yl)pyrrolidin-1-yl)-2-(methylamino)pyrimidin-4-yl)-1H-indazol-6-yl)spiro[1.2.2]pentane-1-carbonitrile], the IC50 was found to be 0.8 nM. `C[C@@H]1CN(c2cc(-n3ncc4ccc([C@]5(C#N)CC56CC6)cc43)ncn2)CCN1C1COC1` [Example 3.1-2] came in with an IC50 of 0.6 nM. As for `C[C@@H]1CN(c2cc(-n3ncc4ccc([C@]5(C#N)CC56CC6)cc43)ncn2)C[C@H](C)[C@]1(C)O` [Example 3.2], the figure is 1.1 nM; as for `COCc1nc(N2C[C@@H](C)[C@@](C)(O)[C@@H](C)C2)cc(-n2ncc3ccc([C@]4(C#N)CC45CC5)cc32)n1` [Example 3.3], 1 nM. As for `COc1nc(N2C[C@@H](C)[C@@](C)(O)[C@@H](C)C2)cc(-n2ncc3ccc([C@]4(C#N)CC45CC5)cc32)n1` [Example 3.4], the figure is 1.5 nM. The same measure for `C[C@H]1CN(c2cc(-n3ncc4ccc([C@]5(C#N)CC56CC6)cc43)ncn2)CCN1C1CCOC1` (stereo partly shown) [Example 3.8-4]: 0.6 nM. As for `CC1(O)CC2(CN(c3cc(-n4ncc5ccc([C@@]6(C#N)CC67CC7)cc54)ncn3)C2)C1` [Example 3.9-1], the IC50 came out at 2.5 nM. The same measure for `CC1(O)CC2(CN(c3cc(-n4ncc5ccc([C@]6(C#N)CC67CC7)cc54)ncn3)C2)C1` [Example 3.9-2]: 1.5 nM; for `C[C@@H]1CN(c2cc(-n3ncc4ccc([C@]5(C#N)CC56CC6)cc43)ncn2)C[C@H](C)N1C1COC1` [Example 4.1]: 0.6 nM; for `CC1(O)CN(c2cc(-n3ncc4ccc([C@]5(C#N)CC56CC6)cc43)ncn2)C1` [Example 4.2]: 1.3 nM. Consider `CC(C)(O)C1CN(c2cc(-n3ncc4ccc([C@]5(C#N)CC56CC6)cc43)ncn2)C1` [Example 4.4], for which half-maximal inhibition (IC50) was put at 0.6 nM. For `COCc1nc(N2CC(OC)C2)cc(-n2ncc3ccc([C@]4(C#N)CC45CC5)cc32)n1` [Example 4.5], the IC50 was 2.6 nM. The same measure for `COCc1nc(N2C[C@@H](C)N(C3COC3)[C@@H](C)C2)cc(-n2ncc3ccc([C@]4(C#N)CC45CC5)cc32)n1` [Example 4.6]: 0.9 nM; for `CS(=O)(=O)N1CCN(c2cc(-n3ncc4ccc([C@]5(C#N)CC56CC6)cc43)ncn2)CC1` [Example 4.7]: 1.3 nM; for `C[C@H]1CN(c2cc(-n3ncc4ccc([C@]5(C#N)CC56CC6)cc43)ncn2)CCN1S(C)(=O)=O` [Example 4.8]: 1.2 nM. For `COCc1nc(N2C[C@@H](C)[C@@](C)(O)[C@@H](C)C2)cc(-n2ncc3ccc([C@]4(C#N)CC45CC5)cc32)n1` [Example 4.10], half-maximal inhibition (IC50) required 0.6 nM. As for `COCc1nc(N2CCN(C3COC3)[C@H](C)C2)cc(-n2ncc3ccc([C@]4(C#N)CC45CC5)cc32)n1` [Example 4.11-1], the figure is 1.3 nM; as for `COCc1nc(N2CCN(C3COC3)[C@@H](C)C2)cc(-n2ncc3ccc([C@]4(C#N)CC45CC5)cc32)n1` [Example 4.11-2], 0.7 nM. `CC(C)(O)[C@H]1CN(c2cc(-n3ncc4ccc([C@]5(C#N)CC56CC6)cc43)ncn2)C[C@H]1F` [Example 4.12-1] returned an IC50 of 1.2 nM. Compared with the last molecule, the IC50 is about 1.7-fold higher.

For the molecule `CC(C)(O)[C@@H]1CN(c2cc(-n3ncc4ccc([C@]5(C#N)CC56CC6)cc43)ncn2)C[C@@H]1F` [Example 4.12-2], half-maximal inhibition (IC50) was put at 0.6 nM. As for `CN1CCOC2(C1)CN(c1cc(-n3ncc4ccc([C@]5(C#N)CC56CC6)cc43)ncn1)C2` [Example 4.13], the figure is 0.6 nM. Consider `CS(=O)(=O)N1CCN(c2cc(-n3ncc4ccc([C@]5(C#N)CC56CC6)cc43)ccn2)CC1` [Example 4.14], for which 2.8 nM corresponded to half-maximal inhibition (IC50). This IC50 lies about 4.7-fold higher than the previous one. Consider `Cc1nc(N2CC3(C(C)(C)O)CC2C3)cc(-n2ncc3c(F)cc(C4(C#N)CC45CC5)cc32)n1` (stereo not shown) [Example 4.16], for which the IC50 was determined as 0.6 nM. Regarding `Cc1nc(N2CCN3CCOC[C@@H]3C2)cc(-n2ncc3ccc([C@]4(C#N)CC45CC5)cc32)n1` [Example 4.17], the IC50 is 0.6 nM.

`N#C[C@@]1(c2ccc3cnn(-c4cc(C5CCN(C6COC6)CC5)ncn4)c3c2)CC12CC2` [Example 4.18] displayed an IC50 of 18.7 nM. As to `Cc1cc(-n2ncc3ccc([C@]4(C#N)CC45CC5)cc32)nc(N)n1` [Example 4.19], the IC50 worked out at 0.6 nM. As for `N#C[C@@]1(c2ccc3cnn(-c4cc(C5CC5)ncn4)c3c2)CC12CC2` [Example 4.21], the figure is 6.5 nM.

With `Cc1cc(-n2ncc3ccc([C@]4(C#N)CC45CC5)cc32)nc(C2CC2)n1` [Example 4.23], inhibition was half-maximal at 3.2 nM (IC50).

The molecule `COCc1nc(C)cc(-n2ncc3ccc([C@]4(C#N)CC45CC5)cc32)n1` [Example 4.24] displayed an IC50 of 10.3 nM. `CNc1nc(C)cc(-n2ncc3ccc([C@]4(C#N)CC45CC5)cc32)n1` [Example 4.25]: the IC50 turned out to be 3.5 nM. This IC50 lies about 2.9-fold lower than the previous one.

In turn, `CCc1cc(-n2ncc3ccc([C@]4(C#N)CC45CC5)cc32)nc(C)n1` [Example 4.26] yielded an IC50 of 3.1 nM.

`CCc1nc(C)cc(-n2ncc3ccc([C@]4(C#N)CC45CC5)cc32)n1` [Example 4.27] gave an IC50 of 3.2 nM. In turn, `CC(C)(O)C12CC(C1)N(c1cc(-n3ncc4ccc([C@@]5(C#N)CC56CC6)cc43)ccn1)C2` [Example 6.1-2] registered an IC50 of 5.3 nM. The same measure for `CC(C)(O)[C@@H]1CCN(c2cc(-n3ncc4ccc([C@@]5(C#N)CC56CC6)cc43)ccn2)C1` [Example 6.2-1]: 1.8 nM. Turning to `CC(C)(O)[C@@H]1CCN(c2cc(-n3ncc4ccc([C@]5(C#N)CC56CC6)cc43)ccn2)C1` [Example 6.2-2], the IC50 came out at 0.9 nM. The same measure for `CC(C)(O)C12CC(C1)N(c1cc(-n3ncc4ccc([C@]5(C#N)CC56CC6)cc43)cc(F)n1)C2` [Example 6.3]: 15 nM; for `C[C@H]1CN(c2cc(-n3ncc4ccc([C@]5(C#N)CC56CC6)cc43)cc(F)n2)CCN1C1COC1` [Example 6.4]: 6.8 nM. The same measure for `C[C@H]1CN(c2cc(-n3ncc4ccc([C@]5(C#N)CC56CC6)cc43)ccn2)CCN1S(C)(=O)=O` [Example 6.5]: 1.5 nM. Turning to `CC(C)(O)C12CC(C1)N(c1cc(-n3ncc4ccc([C@]5(C#N)CC56CC6)cc43)nc(N3CCC3)n1)C2` [Example 8.5, (S)-1-(1-(2-(azetidin-1-yl)-6-(4-(2-hydroxypropan-2-yl)-2-azabicyclo[2.1.1]hexan-2-yl)pyrimidin-4-yl)-1H-indazol-6-yl)spiro[2.2]pentane-1-carbonitrile], the IC50 was 9.8 nM.
